Earlier results, collected in PMC10715210, “Colistin plasma concentrations are not associated with better clinical outcomes in patients with pneumonia caused by extremely drug-resistant Pseudomonas aeruginosa” (Microbiology Spectrum, 2023).
Positions of bridges follow the written chain, without caps; N, C: chain ends. Non-standard residues stand in square brackets, D forms with d. Residues, ends and D or L forms follow the SMILES beside them. *: point of attachment. X1 = CC[C@H](C)CCCCC(=O)*; Dab = NCC[C@H](N)C(=O)O

Conditions: samples drawn at 45 min after the start of infusion; loading dose 9 million IU CMS then 4.5 million IU every 12 hours; cited from earlier work
Procedure: ([10]). […] Concentrations of CMS and formed colistin in plasma were measured as reported previously ([35], [36]). The limits of quantification for colistin and CMS in plasma were 0.20 and 0.50 mg/L, respectively. Based on the almost flat plasma concentration-time profiles of formed colistin at st ...

## CC[C@H](C)CCCCC(=O)N[C@@H](CCN)C(=O)N[C@H](C(=O)N[C@@H](CCN)C(=O)N[C@H]1CCNC(=O)[C@H]([C@@H](C)O)NC(=O)[C@H](CCN)NC(=O)[C@H](CCN)NC(=O)[C@H](CC(C)C)NC(=O)[C@@H](CC(C)C)NC(=O)[C@H](CCN)NC1=O)[C@@H](C)O [colistin] (X1-[Dab]T[Dab][Dab][Dab][dL]L[Dab][Dab]T; lactam 4-C)
  Colistin plasma concentration: 0.44 (0.14–1.59) mg/L
